Assay results taken from patent publication US4576625A, “Fertilizers containing urea with urease inhibitors” (Huls Aktiengesellschaft, priority 1983, dated 1986).
“And” between values parts separate entries of the source, which are not always exact repeats. Equal values may be shown once. Values belong to the compound of their own block, whether it stands above or below them.

Legend:
urease = format: biochemical
rye grass [1] = assay: Pot experiments with rye grass, urea as soil fertilizer with various urease inhibitors (Table 6); format: in vivo; settings: urea four times 1.0 g N/pot; inhibitor 2% of the urea quantity; loamy sand pH 5.6
Excerpt: (§1) The results of the tests in Mitscherlich pots are compiled in Tables 6 and 7.
In Table 6 the various urease inhibitors as urea additives for soil fertilization are compared with one another. Both in overall crop yield as well as in N absorption and in raw protein content, the best results are achieved with bromo-nitro compounds. The maleic derivatives and the quinone product furnish poorer results.
(§2) The mixtures according to the invention used for the experiments of these tables were produced by powdering the urea prills with said bromo-nitro compounds; optionally, the prills can be sprayed before powdering with a hydrocarbon oil to improve adhesion. The bromo-nitro compounds soluble in liquid fertilizers containing urea pose no problems of distribution in dissolved fertilizers containing urea. In the case of slightly soluble bromo-nitro compounds, stirring must occur during the distribution. Optionally, solutizing agents can be added.

rats = settings: oral ingestion by rats; cited from earlier work
rye grass [2] = assay: Pot tests for rye grass, urea as soil fertilizer optionally with 2% urease inhibitors, compared with KAS (Table 7); format: in vivo; settings: for N Absorption / Raw Protein % of Dry Subst / Dry Substance: 2% inhibitor where added; for Dry Substance: 5 cuttings
Procedure: as §1
In the experiments in Table 7 on rye grass, urea, with and without urease inhibitors, used as a soil fertilizer in application amounts between 0.5 and 1.0 g N/pot, was tested in comparison with KAS. As a product from the maleinimide group, Substance 64 from Table 1, i.e. N-methylmaleinimide was added; from the bromo-nitro compounds, Substance 1 of Table 2, bromo-2-nitropropyl-N-methylcarbamate was added. […] The yield of dry solids scarcely increases as the application of fertilizer increases from 0.75 to 1.0 g N both with urea fertilization alone as well as with the addition of a maleinimide compound.
as §2

[3] = system: spring wheat, sirocco type; assay: Pot tests with spring wheat, urea or AUS as leaf fertilizer with urease inhibitor (Table 8); format: in vivo
Excerpt: (In the case of the test series with AUS and urea, equal quantities of N were used. The quantities of the urease inhibitors used were increased in the same way in both test series. If, however, the inhibitor material is related to the use of urea-N, this means that in the case of AUS double the quantity comes into play.)

[4] = Critical relative humidity (water activity) of fertilizer solutions; format: physicochemical; settings: 50% urea solution as for 100% salts; between 10° and 30° C.
[5] = AUS leaf fertilizer, inhibitor quantity 4 per 100 g urea-N
[6] = AUS leaf fertilizer, inhibitor quantity 8 per 100 g urea-N
[7] = urea solution leaf fertilizer, inhibitor quantity 2 per 100 g urea-N
[8] = urea solution leaf fertilizer, inhibitor quantity 4 per 100 g urea-N

Compound: CCC(Br)(COC(=O)NC)[N+](=O)[O-] (centres unmarked) [Subst. 2-Tab. 3, 2-Bromo-2-nitro-butyl-N--methylcarbamate]
N losses of the soil through NH3 volatilization as % of the urea-N quantities used (urease): 0.5% and 0.0%

Compound: CC(Br)(CO)[N+](=O)[O-] (centres unmarked) [Subst. 4-Tab. 3, 2-Bromo-2-nitro-propanol]
N losses of the soil through NH3 volatilization as % of the urea-N quantities used (urease): 2.1% and 0.0%
Dry Substance 1st-5th Cutting (rye grass [1]): 127.8 g/Pot
N-absorption (rye grass [1]): 3.09 g/Pot
Raw Protein % in Dry Substance (rye grass [1]): 15.1%

Compound: CCCC(O)C(Br)[N+](=O)[O-] (centres unmarked) [Subst. 6-Tab. 3, 1-Bromo-1-nitro-pentanol-2]
N losses of the soil through NH3 volatilization as % of the urea-N quantities used (urease): 6.5% and 0.0%

Compound: CC(O)C(Br)[N+](=O)[O-] (centres unmarked) [Subst. 11-Tab. 3, 1-Bromo-1-nitro-propanol-2]
N losses of the soil through NH3 volatilization as % of the urea-N quantities used (urease): 2.3%

Compound: CCC(O)C(Br)[N+](=O)[O-] (centres unmarked) [Subst. 7-Tab. 3, 1-Bromo-1-nitro-butanol-2]
N losses of the soil through NH3 volatilization as % of the urea-N quantities used (urease): 8.3% and 0.0%

Compound: O=[N+]([O-])C(Br)(CO)CO [Subst. 3-Tab. 3, 2-Bromo-2-nitro-propan-1,3-diol]
N losses of the soil through NH3 volatilization as % of the urea-N quantities used (urease): 0.9% and 0.0%
N losses of the soil through NH3 volatilization calculated as % of the urea-N quantities used (urease): 0.0% and 0.5%
Dry Substance 1st-5th Cutting (rye grass [1]): 128.6 g/Pot
N-absorption (rye grass [1]): 3.15 g/Pot
Raw Protein % in Dry Substance (rye grass [1]): 15.3%
LD50 (rats): 400 mg/kg

Compound: O=C1C=CC(=O)C=C1 [Subst. 31-Tab. 1, 1,4-Benzoquinone]
Dry Substance 1st-5th Cutting (rye grass [1]): 118.3 g/Pot
N-absorption (rye grass [1]): 2.54 g/Pot
Raw Protein % in Dry Substance (rye grass [1]): 13.4%

Compound: O=C1C=CC(=O)N1CO [Subst. 66-Tab. 1, N--Methylolmaleinimide]
urease inhibitor effect (in words) (urease): best inhibitor effects
Dry Substance 1st-5th Cutting (rye grass [1]): 125.0 g/Pot
N-absorption (rye grass [1]): 2.85 g/Pot
Raw Protein % in Dry Substance (rye grass [1]): 14.3%

Compound: CC(C)C(O)C(Br)[N+](=O)[O-] (centres unmarked) [Subst. 8-Tab. 3, 1-Bromo-1-nitro-3-methyl-butane-2-ol]
N losses of the soil through NH3 volatilization as % of the urea-N quantities used (urease): 10.0% and 0.1%

Compound: CNC(=O)OCC(C)(Br)[N+](=O)[O-] (centres unmarked) [Subst. 1-Tab. 3, 2-Bromo-2-nitro-propyl-N--methylcarbamate]
N losses of the soil through NH3 volatilization as % of the urea-N quantities used (urease): 0.3% and 0.0%
N losses of the soil through NH3 volatilization calculated as % of the urea-N quantities used (urease): 0.0% and 1.2% and 0.1%
Dry Substance 1st-5th Cutting (rye grass [1]): 131.7 g/Pot
N-absorption (rye grass [1]): 3.29 g/Pot
Raw Protein % in Dry Substance (rye grass [1]): 15.6%
N Absorption (rye grass [2]; N fertilization 0.5 g N/pot): 1432 mg/Pot
Raw Protein % of Dry Subst (rye grass [2]; N fertilization 0.5 g N/pot): 12.62%
Dry Substance (rye grass [2]; N fertilization 0.5 g N/pot): 70.9 g/Pot
N Absorption (rye grass [2]; N fertilization 0.75 g N/pot): 2095 mg/Pot
Raw Protein % of Dry Subst (rye grass [2]; N fertilization 0.75 g N/pot): 16.43%
Dry Substance (rye grass [2]; N fertilization 0.75 g N/pot): 79.7 g/Pot
N Absorption (rye grass [2]; N fertilization 1.0 g N/pot): 2720 mg/Pot
Raw Protein % of Dry Subst (rye grass [2]; N fertilization 1.0 g N/pot): 19.68%
Dry Substance (rye grass [2]; N fertilization 1.0 g N/pot): 86.4 g/Pot
comparison of fertilizer combinations (in words) (rye grass [2]; urea + 2% inhibitor): superior to the corresponding mixture with 2% of a maleinimide compound
Dry Substance [3, 5]: 68.68 g/pot
N Absorption [3, 5]: 1058 mg/pot
Raw Protein [3, 5]: 9.63%
Dry Substance [3, 6]: 68.69 g/pot
N Absorption [3, 6]: 1051 mg/pot
Raw Protein [3, 6]: 9.56%
Dry Substance [3, 7]: 65.11 g/pot
N Absorption [3, 7]: 951 mg/pot
Raw Protein [3, 7]: 9.13%
Dry Substance [3, 8]: 68.36 g/pot
N Absorption [3, 8]: 1046 mg/pot
Raw Protein [3, 8]: 9.56%

Compound: CN1C(=O)C=CC1=O [Subst. 64-Tab. 1, N--Methylmaleinimide, reference compound]
urease inhibitor effect (in words) (urease): best inhibitor effects
N Absorption (rye grass [2]; N fertilization 0.5 g N/pot): 1285 mg/Pot
Raw Protein % of Dry Subst (rye grass [2]; N fertilization 0.5 g N/pot): 11.66%
N Absorption (rye grass [2]; N fertilization 0.75 g N/pot): 1676 mg/Pot
Raw Protein % of Dry Subst (rye grass [2]; N fertilization 0.75 g N/pot): 12.82%
N Absorption (rye grass [2]; N fertilization 1.0 g N/pot): 1944 mg/Pot
Raw Protein % of Dry Subst (rye grass [2]; N fertilization 1.0 g N/pot): 14.84%

Compound: CCN1C(=O)C=CC1=O [Subst. 56-Tab. 1, N--Ethylmaleinimide, reference compound]
urease inhibitor effect (in words) (urease): best inhibitor effects

Compound: O=C(Nc1ccccc1)OCN1C(=O)C=CC1=O [Subst. 68-Tab. 1, N--Methylolmaleinimide phenyl urethane]
Dry Substance 1st-5th Cutting (rye grass [1]): 124.0 g/Pot
N-absorption (rye grass [1]): 2.83 g/Pot
Raw Protein % in Dry Substance (rye grass [1]): 14.3%

CRH value (critical relative humidity) [4]: 75-76%
Compound: NC(N)=O [urea]

Compound: O=C1C=CC(=O)N1 [Subst. 61-Tab. 1, Maleinimide, reference compound]
urease inhibitor effect (in words) (urease): best inhibitor effects

Compound: CC(C)(C)C(O)C(Br)[N+](=O)[O-] (centres unmarked) [Subst. 5-Tab. 3, 1-Bromo-1-nitro-3,3.dimethyl-butane-2-ol]
N losses of the soil through NH3 volatilization as % of the urea-N quantities used (urease): 4.7% and 0.0%

Compound: O=C1C2C3C=CC(C3)C2C(=O)N1SC(Cl)(Cl)Cl (centres unmarked) [Subst. 23-Tab. 2, reference compound]
urease inhibitor effect (in words) (urease): No outstanding inhibitor effect

Compound: CC(=O)OCN1C(=O)C=CC1=O [Subst. 48-Tab. 1, N--Acetoximethylmaleinimide]
urease inhibitor effect (in words) (urease): best inhibitor effects
Dry Substance 1st-5th Cutting (rye grass [1]): 129.7 g/Pot
N-absorption (rye grass [1]): 2.85 g/Pot
Raw Protein % in Dry Substance (rye grass [1]): 13.7%
